In ChEMBL document CHEMBL5131534, “Identification of 2-Pyridinylindole-Based Dual Antagonists of Toll-like Receptors 7 and 8 (TLR7/8)” (ACS Med Chem Lett, 2022):

How the values were obtained:
[1] = Volume of distribution at steady state in mouse blood at 5 mg/kg, iv; format: ADME, organism-based; conditions: read-out: Vdss
Toll-like receptor 3 = target: T1, Toll-like receptor 3 (Homo sapiens, UniProt O15455); experiment: Antagonist activity at […] stimulated human TRL3 overexpressed in HEK293 cells assessed as inhibition of NF kappa B/Ap-1 activation preincubated with compound for 30 mins followed by […] stimulation measured after 22 hrs by SEAP reporter assay; format: cell-based
T1 sequence (O15455 whole entry): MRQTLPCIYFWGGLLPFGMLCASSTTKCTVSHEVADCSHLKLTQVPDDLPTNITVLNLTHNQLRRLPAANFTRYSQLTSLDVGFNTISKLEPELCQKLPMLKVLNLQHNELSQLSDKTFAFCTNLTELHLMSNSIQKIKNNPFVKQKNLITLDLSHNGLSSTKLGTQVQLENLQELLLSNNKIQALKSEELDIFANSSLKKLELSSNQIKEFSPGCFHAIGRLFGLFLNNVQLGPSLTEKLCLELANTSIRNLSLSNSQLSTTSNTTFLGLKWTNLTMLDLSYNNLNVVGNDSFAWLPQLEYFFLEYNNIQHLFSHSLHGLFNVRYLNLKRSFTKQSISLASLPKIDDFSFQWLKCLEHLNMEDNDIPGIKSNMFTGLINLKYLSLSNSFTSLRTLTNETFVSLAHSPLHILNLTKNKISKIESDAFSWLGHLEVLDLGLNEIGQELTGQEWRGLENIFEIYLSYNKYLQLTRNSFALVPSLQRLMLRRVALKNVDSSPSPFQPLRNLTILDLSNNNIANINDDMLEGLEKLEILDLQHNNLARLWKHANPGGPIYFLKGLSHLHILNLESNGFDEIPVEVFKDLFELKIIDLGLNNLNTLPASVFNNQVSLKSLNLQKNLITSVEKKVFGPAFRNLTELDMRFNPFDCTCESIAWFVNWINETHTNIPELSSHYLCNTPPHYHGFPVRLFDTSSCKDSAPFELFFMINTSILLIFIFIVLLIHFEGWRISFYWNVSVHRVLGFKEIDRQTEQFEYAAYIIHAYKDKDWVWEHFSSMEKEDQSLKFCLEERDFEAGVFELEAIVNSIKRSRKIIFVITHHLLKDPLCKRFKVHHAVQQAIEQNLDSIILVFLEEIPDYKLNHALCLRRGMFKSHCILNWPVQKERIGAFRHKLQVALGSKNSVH

Toll-like receptor 9 = target: T2, Toll-like receptor 9 (Mus musculus, UniProt Q9EQU3); experiment: Antagonist activity at ODN-2216 stimulated TLR9 in mouse whole blood assessed as inhibition of IL-6 production by ELISA analysis; format: tissue-based
T2 sequence (Q9EQU3 whole entry): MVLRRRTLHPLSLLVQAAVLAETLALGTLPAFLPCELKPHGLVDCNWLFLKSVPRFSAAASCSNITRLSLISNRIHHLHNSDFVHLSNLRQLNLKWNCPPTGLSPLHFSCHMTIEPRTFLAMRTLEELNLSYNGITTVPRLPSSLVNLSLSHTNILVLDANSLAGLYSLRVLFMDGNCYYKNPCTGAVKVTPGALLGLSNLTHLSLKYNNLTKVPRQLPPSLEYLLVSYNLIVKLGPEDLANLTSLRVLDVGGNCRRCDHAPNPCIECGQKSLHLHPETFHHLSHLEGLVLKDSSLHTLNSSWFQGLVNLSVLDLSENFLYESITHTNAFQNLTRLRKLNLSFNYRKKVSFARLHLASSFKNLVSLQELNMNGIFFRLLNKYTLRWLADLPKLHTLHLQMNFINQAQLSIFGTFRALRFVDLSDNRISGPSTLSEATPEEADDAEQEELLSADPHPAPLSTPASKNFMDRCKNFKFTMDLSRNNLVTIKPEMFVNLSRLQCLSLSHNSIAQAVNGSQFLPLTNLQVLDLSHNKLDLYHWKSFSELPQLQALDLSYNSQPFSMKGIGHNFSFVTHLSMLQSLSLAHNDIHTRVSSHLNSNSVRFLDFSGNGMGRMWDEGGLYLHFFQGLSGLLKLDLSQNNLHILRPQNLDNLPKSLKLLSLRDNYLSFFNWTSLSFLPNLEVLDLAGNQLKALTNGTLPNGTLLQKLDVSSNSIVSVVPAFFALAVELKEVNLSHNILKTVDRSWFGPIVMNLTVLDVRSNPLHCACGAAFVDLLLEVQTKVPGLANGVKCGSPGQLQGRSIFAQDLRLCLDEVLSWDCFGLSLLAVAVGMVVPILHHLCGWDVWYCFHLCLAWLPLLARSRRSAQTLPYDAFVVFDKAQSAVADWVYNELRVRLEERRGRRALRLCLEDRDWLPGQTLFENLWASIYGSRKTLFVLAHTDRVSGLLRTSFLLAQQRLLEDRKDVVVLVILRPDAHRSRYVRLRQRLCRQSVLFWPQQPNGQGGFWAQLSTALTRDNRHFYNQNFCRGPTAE

[2] = AUClast in mouse blood at 15 mg/kg, po; format: ADME, organism-based; design: time 0 - last, dose 15 mg/kg, route po
[3] = Clearance in mouse blood at 5 mg/kg, iv; format: ADME, organism-based
[4] = In vivo antagonist activity at TRL7 in C57BL/6 mouse assessed as inhibition of gardiquimod stimulated IL-6 production at 0.03 mg/kg,po for 30 minutes and followed by gardiquimod addition measured after 90 mins by ELISA analysis relative to control; format: functional; design: scale not given: the % may be the effect or the level left; conditions: time 120 min, 2 h
[5] = In vivo antagonist activity at TRL7 in C57BL/6 mouse assessed as inhibition of gardiquimod stimulated IL-6 production at […],po for 30 minutes and followed by gardiquimod addition measured after 90 mins by ELISA analysis relative to control; format: functional; design: scale not given: the % may be the effect or the level left; conditions: time 120 min, 2 h
Mus musculus [6] = experiment: Anti-inflammatory activity against MRL/Ipr Systemic lupus erythematosus mouse model assessed as inhibition of anti-Sm/RNP Ab titer at 5 mg/kg, po administered for 8 weeks and measured 24 hrs post final dose relative to control; format: functional; design: scale not given: the % may be the effect or the level left; conditions: time 1368 hrs
Mus musculus [7] = experiment: Anti-inflammatory activity against MRL/Ipr Systemic lupus erythematosus mouse model assessed as inhibition of anti-Sm/RNP Ab titer at 20 mg/kg, po administered for 8 weeks and measured 24 hrs post final dose relative to control; format: functional; design: scale not given: the % may be the effect or the level left; conditions: time 1368 hrs
Mus musculus [8] = experiment: Anti-inflammatory activity against MRL/Ipr Systemic lupus erythematosus mouse model assessed as inhibition of anti-dsDNA Ab titer at 1 mg/kg, po administered for 8 weeks and measured 24 hrs post final dose relative to control; format: functional; design: scale not given: the % may be the effect or the level left; conditions: time 1368 hrs
Mus musculus [9] = experiment: Anti-inflammatory activity against MRL/Ipr Systemic lupus erythematosus mouse model assessed as inhibition of anti-dsDNA Ab titer at 20 mg/kg, po administered for 8 weeks and measured 24 hrs post final dose relative to control; format: functional; design: scale not given: the % may be the effect or the level left; conditions: time 1368 hrs
[10] = Toxicity in MRL/Ipr Systemic lupus erythematosus mouse model assessed as relative spleen weight at 0.1 mg/kg, po administered for 8 weeks and measured 24 hrs post final relative to control; format: organism-based; conditions: in vivo, 1368 h
[11] = Toxicity in MRL/Ipr Systemic lupus erythematosus mouse model assessed as relative spleen weight at 1 mg/kg, po administered for 8 weeks and measured 24 hrs post final dose relative to control; format: organism-based; conditions: in vivo, 1368 h
[12] = Toxicity in MRL/Ipr Systemic lupus erythematosus mouse model assessed as relative spleen weight at 20 mg/kg, po administered for 8 weeks and measured 24 hrs post final dose relative to control; format: organism-based; conditions: in vivo, 1368 h

Vd [1]: 113 L/kg | IC50 (Toll-like receptor 3): > 10 µM | IC50 (Toll-like receptor 9): > 5 µM | AUC(0-t) [2]: 2.77 µM·h | clearance [3]: 146 mL/min/kg
Compound: Cc1cc(-c2[nH]c3ccc(C4CCNCC4)cc3c2C(C)C)cc(C)n1
Activity [4]: 28% | Activity [5]: 83% | Activity (Mus musculus [6]): 74% | Activity (Mus musculus [7]): 82% | Activity (Mus musculus [8]): 14% | Activity (Mus musculus [9]): 53% | Activity [10]: 28% | Activity [11]: 48% | Activity [12]: 51%
